Measured values published in PMC5913406 (British Journal of Pharmacology, 2018).

How the values were obtained:
A1 receptor = details: 25°C; ref Guo et al., 2013; cited from earlier work
[1] = target: T1, human adenosine A1 receptor (Homo sapiens, UniProt P30542); assay: Two‐state competition association assay with [^3H]‐NECA; type: binding
T1 sequence (P30542 1-326): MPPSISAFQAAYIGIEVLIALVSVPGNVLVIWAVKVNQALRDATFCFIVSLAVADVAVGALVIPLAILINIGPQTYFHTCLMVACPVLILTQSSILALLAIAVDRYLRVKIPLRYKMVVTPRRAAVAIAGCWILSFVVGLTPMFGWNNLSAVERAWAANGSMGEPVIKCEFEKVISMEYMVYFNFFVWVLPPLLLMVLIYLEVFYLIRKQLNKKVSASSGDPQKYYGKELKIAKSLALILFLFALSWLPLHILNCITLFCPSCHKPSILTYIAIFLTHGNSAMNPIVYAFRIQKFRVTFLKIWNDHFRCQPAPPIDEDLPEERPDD

[2] = target: T1, human adenosine A1 receptor; assay: Competition binding assay: displacement of [^3H]‐NECA on CHOhA1R cell membranes

Row | Structure (SMILES) | association rate (A1 receptor) | Kb ([1]; KB,2, KB,2 = k8/k7, R2 state, 30°C, DPCPX and LUF5962 values ambiguous) | kon ([1]; read-out: k5 (association rate constant of competitor at R1 state)) | koff ([1]; read-out: k6 (dissociation rate constant of competitor at R1 state)) | IC50 [2] | k6 (dissociation rate constant of competitor at R1 state) ([1]; two‐state model, 30°C, mean ± SEM of five experiments)
1 | c1ccc(-c2nc(-c3ccccc3)c3nc(C4CCCC4)[nH]c3n2)cc1 [LUF5962, 8‐cyclopentyl‐2,6‐diphenyl‐9H‐purine] | 2e+06 M⁻¹ s⁻¹ | 15 nM | 167000 M⁻¹ s⁻¹ | 0.00383 s⁻¹ | 74.1 nM | –
2 | CCCn1c(=O)c2[nH]c(C3CCCC3)nc2n(CCC)c1=O [DPCPX, 1,3‐dipropyl‐8‐cyclopentylxanthine] | 3.33e+06 M⁻¹ s⁻¹ | – | – | – | – | 0.78 ± 1.42 min⁻¹
